pIC50: −log10 of the molar value.

The subject of this test is production of TNF by monocytes activated with bacterial lipopolysaccharide (LPS). The test is described as follows: Lipopolysaccharide-activated monocyte TNF production assay. Type of test: cell-based. The following applies: Homo sapiens; whole blood monocyte assay (LPS induced TNF release). In short, it runs like this: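 Adherent human PBMC-derived monocytes preincubated 60 min with nine two-fold compound dilutions, then stimulated with E. coli K532 LPS (30 ng/mL in the added medium) for 4 h at 37 °C. Supernatant TNF measured by sandwich ELISA; IC50 is the compound concentration halving TNF production, from second-order polynomial fits.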
As to `Cc1ccccc1-c1nncc2cc(Oc3ccccc3C(=O)NC3CC3)ccc12` [Example 343, N-cyclopropyl-2-{[1-(2-methylphenyl)phthalazin-6-yl]oxy}benzamide], the pIC50 was not below 5.30.
As for `COc1c(F)cccc1-c1nncc2cc(-c3cc(C(=O)NC4CC4)ccc3C)ccc12` [Example 248, N-cyclopropyl-3-[1-(3-fluoro-2-methoxyphenyl)phthalazin-6-yl]-4-methylbenzamide], the pIC50 is not below 5.30.
The value for `CNc1noc2c(-c3ccc4c(OC(C)C)nncc4c3)c(C)ccc12` [Example 331, N,6-dimethyl-7-(1-((1-methylethyl)oxy)-6-phthalazinyl)-1,2-benzisoxazol-3-amine] was not below 5.30; that for `Cc1ccc(C(=O)NC2CC2)cc1-c1ccc2c(N3CCN(c4c(C)cccc4C)CC3)nncc2c1` [Example 162, N-cyclopropyl-3-{1-[4-(2,6-dimethylphenyl)piperazin-1-yl]phthalazin-6-yl}-4-methylbenzamide] was not below 5.30.
The value for `Cc1ccc(-c2nncc3cc(-c4cc(C(N)=O)ccc4C)ccc23)c(Cl)c1` [Example 221, 3-[1-(2-chloro-4-methylphenyl)phthalazin-6-yl]-4-methylbenzamide] was not below 5.30.
In the case of `Cc1ccc(C(N)=O)cc1-c1ccc2c(N3CCn4c(nnc4C(F)(F)F)C3)nncc2c1` [Example 294, 4-methyl-3-{1-[3-(trifluoromethyl)-5,6-dihydro[1,2,4]triazolo[4,3-a]pyrazin-7(8H)-yl]phthalazin-6-yl}benzamide], the pIC50 was not below 5.30.
The figure for `Cc1ccc2c(NC3CC3)noc2c1-c1ccc2c(NC(C)C)nncc2c1` [Example 370, 6-[3-(cyclopropylamino)-6-methyl-1,2-benzisoxazol-7-yl]-N-isopropylphthalazin-1-amine] is not below 5.30.
For `COC[C@H](C)Nc1nncc2cc(-c3cc(C(=O)NC4CC4)ccc3C)ccc12` [Example 192, N-cyclopropyl-3-(1-{[(1S)-2-methoxy-1-methylethyl]amino}phthalazin-6-yl)-4-methylbenzamide], the pIC50 is not below 5.30.
In the case of `CCSc1nncc2cc(-c3cc(C(=O)NC4CC4)ccc3C)ccc12` [Example 55, N-cyclopropyl-3-(1-(ethylthio)phthalazin-6-yl)-4-methylbenzamide], the pIC50 is not below 5.30.
`Cc1ccc(C(=O)NC2CC2)cc1-c1ccc2c(N3CCO[C@@H](CO)C3)nncc2c1` [Example 160, N-cyclopropyl-3-{1-[(2R)-2-(hydroxymethyl)morpholin-4-yl]phthalazin-6-yl}-4-methylbenzamide]: the pIC50 was not below 5.30.
In the case of `Cc1ccccc1Oc1nncc2cc(-c3c(C)ccc4c(NC5CC5)noc34)ccc12` [Example 318, N-cyclopropyl-6-methyl-7-[1-(2-methylphenoxy)phthalazin-6-yl]-1,2-benzisoxazol-3-amine], the pIC50 was not below 5.30.
The value for `CC(=O)N1CCC(c2nncc3cc(-c4cc(C(=O)NC5CC5)ccc4C)ccc23)CC1` [Example 67, 3-(1-(1-acetylpiperidin-4-yl)phthalazin-6-yl)-N-cyclopropyl-4-methylbenzamide] was not below 5.30.
The figure for `Cc1ccc(S(C)(=O)=O)cc1-c1ccc2c(N3CCOCC3)nncc2c1` [Example 195, 6-[2-methyl-5-(methylsulfonyl)phenyl]-1-morpholin-4-ylphthalazine] is not below 5.30; for `CC(=O)N1CCN(c2nncc3cc(-c4cc(C(=O)NC5CC5)ccc4C)ccc23)CC1` [Example 157, 3-[1-(4-acetylpiperazin-1-yl)phthalazin-6-yl]-N-cyclopropyl-4-methylbenzamide] it is not below 5.30; for `Cc1ccc(S(N)(=O)=O)cc1-c1ccc2c(N3CCOCC3)nncc2c1` [Example 106, 4-Methyl-3-(1-morpholinophthalazin-6-yl)benzenesulfonamide] it is not below 5.30.
The value for `Cc1ccc(C(N)=O)cc1-c1ccc2c(-c3ccc([S+](C)[O-])cc3C)nncc2c1` (stereo not shown) [Example 243, 4-methyl-3-{1-[2-methyl-4-(methylsulfinyl)phenyl]phthalazin-6-yl}benzamide] was not below 5.30; that for `Cc1ccc(C(=O)NC2CC2)cc1-c1ccc2c(N3CCSCC3)nncc2c1` [Example 134, N-cyclopropyl-4-methyl-3-(1-thiomorpholin-4-ylphthalazin-6-yl)benzamide] was not below 5.30.
Compound `CC[C@@H](C)Oc1nncc2cc(-c3cc(C(=O)NC4CC4)ccc3C)ccc12` [Example 328, N-cyclopropyl-4-methyl-3-(1-{[(1R)-1-methylpropyl]oxy}phthalazin-6-yl)benzamide] gave a pIC50 not below 5.30.
`Cc1ccc(C(N)=O)cc1-c1ccc2c(N(C)C(C)C)nncc2c1` [Example 292, 3-{1-[isopropyl(methyl)amino]phthalazin-6-yl}-4-methylbenzamide] showed a pIC50 not below 5.30.
Compound `Cc1ccc(C(=O)NC2CC2)cc1-c1ccc2c(OC(C)C)nncc2c1` [Example 168, N-cyclopropyl-3-(1-isopropoxyphthalazin-6-yl)-4-methylbenzamide] showed a pIC50 not below 5.30.
The figure for `Cc1ccc(S(=O)(=O)NC2CC2)cc1-c1ccc2c(N3CCOCC3)nncc2c1` [Example 360, N-cyclopropyl-4-methyl-3-(1-morpholin-4-ylphthalazin-6-yl)benzenesulfonamide] is not below 5.30; for `Cc1ccc(C(=O)NC2CC2)cc1-c1ccc2c(Oc3cccnc3C)nncc2c1` [Example 308, N-cyclopropyl-4-methyl-3-{1-[(2-methylpyridin-3-yl)oxy]phthalazin-6-yl}benzamide] it is not below 5.30; for `Cc1ccc(C(=O)NC2CC2)cc1-c1ccc2c(N3CCCCC3)nncc2c1` [Example 159, N-cyclopropyl-4-methyl-3-(1-piperidin-1-ylphthalazin-6-yl)benzamide] it is not below 5.30.
The figure for `Cc1ccc(C(=O)NC2CC2)cc1-c1ccc2c(OC3CCN(C)CC3)nncc2c1` [Example 319, N-cyclopropyl-4-methyl-3-{1-[(1-methylpiperidin-4-yl)oxy]phthalazin-6-yl}benzamide] is not below 5.30; for `CCNc1noc2c(-c3ccc4c(N5CCOC[C@@H]5C)nncc4c3)c(C)ccc12` [Example 384, N-ethyl-6-methyl-7-{1-[(3S)-3-methylmorpholin-4-yl]phthalazin-6-yl}-1,2-benzisoxazol-3-amine] it is not below 5.30.
The value for `Cc1ccc(C(N)=O)cc1-c1ccc2c(NCCO)nncc2c1` [Example 407, 3-{1-[(2-hydroxyethyl)amino]phthalazin-6-yl}-4-methylbenzamide] was not below 5.30; that for `Cc1ccc(C(=O)NC2CC2)cc1-c1ccc2c(C3CCNCC3)nncc2c1` [Example 64, N-cyclopropyl-4-methyl-3-(1-(piperidin-4-yl)phthalazin-6-yl)benzamide] was not below 5.30; that for `Fc1ccc(Oc2ccc3c(-c4cncnc4)nncc3c2)cc1` [Example 351, 6-(4-fluorophenoxy)-1-pyrimidin-5-ylphthalazine] was not below 5.30.
`COCCN(C)c1nncc2cc(-c3cc(C(=O)NC4CC4)ccc3C)ccc12` [Example 188, N-cyclopropyl-3-{1-[(2-methoxyethyl)(methyl)amino]phthalazin-6-yl}-4-methylbenzamide]: the negative-log IC50 (pIC50) was not below 5.30.
Regarding `Cc1ccc(C(=O)NC2CC2)cc1-c1ccc2c(N(C)C)nncc2c1` [Example 187, N-cyclopropyl-3-[1-(dimethylamino)phthalazin-6-yl]-4-methylbenzamide], the pIC50 is not below 5.30.
The value for `Cc1ccc(C(N)=O)cc1-c1ccc2c(N3CCN4C(=O)OC[C@H]4C3)nncc2c1` [Example 284, 3-{1-[(8aR)-3-oxotetrahydro[1,3]oxazolo[3,4-a]pyrazin-7(1H)-yl]phthalazin-6-yl}-4-methylbenzamide] was not below 5.30; that for `Cc1ccc2c(N)noc2c1-c1ccc2c(NC(C)C)nncc2c1` [Example 385, 6-(3-amino-6-methyl-1,2-benzisoxazol-7-yl)-N-isopropylphthalazin-1-amine] was not below 5.30; that for `Cc1ccc(C(N)=O)cc1-c1ccc2c(Oc3ccc(F)cc3F)nncc2c1` [Example 304, 3-[1-(2,4-difluorophenoxy)phthalazin-6-yl]-4-methylbenzamide] was not below 5.30.
The figure for `COCCNc1nncc2cc(-c3cc(C(=O)NC4CC4)ccc3C)ccc12` [Example 194, N-cyclopropyl-3-{1-[(2-methoxyethyl)amino]phthalazin-6-yl}-4-methylbenzamide] is not below 5.30; for `Cc1ccc(C(N)=O)cc1-c1ccc2c(NC(C)C)nncc2c1` [Example 179, 3-[1-(isopropylamino)phthalazin-6-yl]-4-methylbenzamide] it is not below 5.30; for `Cc1ccc(C(=O)NC2CC2)cc1-c1ccc2c(N3CCCC(C(N)=O)C3)nncc2c1` (stereo not shown) [Example 29, 1-(6-(5-(cyclopropylcarbamoyl)-2-methylphenyl)phthalazin-1-yl)piperidine-3-carboxamide] it is not below 5.30.
The figure for `Cc1ccc(C(=O)NC2CC2)cc1-c1ccc2c(N3CC[C@@H](O)C3)nncc2c1` [Example 166, N-cyclopropyl-3-{1-[(3R)-3-hydroxypyrrolidin-1-yl]phthalazin-6-yl}-4-methylbenzamide] is not below 5.30.
Consider `Cc1ccc(C(N)=O)cc1-c1ccc2c(N3CC[S+]([O-])CC3)nncc2c1` [Example 60, 4-methyl-3-[1-(1-oxidothiomorpholin-4-yl)phthalazin-6-yl]benzamide], for which the pIC50 is not below 5.30.
The value for `Cc1ccc(C(=O)NC2CC2)cc1-c1ccc2c(-c3ccc(S(C)(=O)=O)cc3C)nncc2c1` [Example 256, N-cyclopropyl-4-methyl-3-{1-[2-methyl-4-(methylsulfonyl)phenyl]phthalazin-6-yl}benzamide] was not below 5.30; that for `Cc1ccc(C(=O)NC2CC2)cc1-c1ccc2c(N3CCC[C@@H]3C)nncc2c1` [Example 295, N-cyclopropyl-4-methyl-3-{1-[(2S)-2-methylpyrrolidin-1-yl]phthalazin-6-yl}benzamide] was not below 5.30.

For orientation: pIC50 means −log10 of the IC50, conventionally taken in molar units.

Source of the values: patent US7759337B2, “Phthalazine compounds and methods of use” (Amgen Inc., priority 2005, dated 2010).
